Measurements: patent US11833144B2, “Treating autoimmune disease” (Mayo Foundation for Medical Education and Research, priority 2020, dated 2023)

Columns and labels:
Format in all cases: cell-based, mouse
activated murine B cells [1] = assay: Seahorse OCR / ECAR in activated murine B cells
Procedure: The bioenergetic activities of the OCR and ECAR were measured using a Seahorse XFe96 Extracellular Flux Analyzed following established protocols (Agilent). Briefly, B cells were seeded at 200,000 cells/well on Cell-Tak (Corning) coated XFe96 plate with fresh XF media (Seahorse XF RPMI medium containing 10 mM glucose, 2 mM L-glutamine, and 1 mM sodium pyruvate, PH 7.4; all reagents from Agilent). OCR was measured in the presence of Oligomycin (1.5 μM; Sigma-Aldrich), FCCP (1.5 μM; Sigma-Aldrich), and Rotenone (1 μM; Sigma-Aldrich)/Antimycin A (1 μM; Sigma-Aldrich) in Mito Stress assay. For ECAR measurement, B cells were seeded in XFe96 plate with fresh Seahorse XF RPMI medium with 2 mM L-glutamine (PH 7.4), and treated with glucose (10 mM; Agilent), Oligomycin (1.5 and 2-DG (50 mM; Sigma-Aldrich) orderly in Glycolysis Stress assay.

activated murine B cells [2] = assay: TMRM staining of mitochondrial membrane potential in activated murine B cells; details: 72 hours; for mitochondrial membrane potential (TMRM): substance alone
Procedure: For analysis of surface markers, cells were stained in PBS containing 1% (w/v) bovine serum albumin on ice for 30 minutes, with anti-IgG1 (RMG1-1, Biolegend), anti-CD19 (ID3, Biolegend) anti-B220 (RA3-6B2, Biolegend), anti-CD4 (GK1.5, Biolegend), anti-CD8 (53-6.7, Biolegend), anti-CD25 (PC16, Biolegend), anti-GL7 (GL-7, Biolegend), anti-CD95 (Jo2, BD Biosciences), anti-CD138 (281-2, Biolegend), anti-IgD (11-26c.2a, Biolegend), anti-PD-1 (J43, ThermoFisher), anti-IgM (II/41, ThermoFisher). Antigen specific GC response was detected with tetramer NP-phycoerythrin conjugated with PE (Biosearch Technologies). CXCR5 was stained with biotinylated anti-CXCR5 (2G8) followed by staining with streptavidin-conjugated PE (both from BD Biosciences). Cell viability was assessed using the Fixable Dye Ghost 510 (Tonbo Bioscience) or Annexin V cell apoptosis kit with 7-AAD (ThermoFisher) following the manufacturer's protocol. Phosflow staining for phospho-S6 (S235/236) was performed using Phosflow Fix/Perm kit (BD Biosciences). Mitochondrial potential was measured by staining with 20 nM TMRM (ThermoFisher) following manufacturer's instructions. Flow cytometry was performed on the LSR II, LSR Fortessa (BD Biosciences) or Attune NxT (ThermoFisher) cytometers, and analysis was performed using FlowJo software (Tree Star).

[3] = tested on: LC3-I/LC3-II, p-S6, p-S6K, AID; assay: Immunoblot of LC3-I/LC3-II, p-S6, p-S6K and AID in activated murine B cells
Procedure: For immunoblotting, cells were lysed in lysis buffer with protease and phosphatase inhibitors (Sigma-Aldrich). Protein concentration in samples were quantified by BCA assay (Thermo Fisher Scientific) before loading the samples for electrophoresis and membrane transfer. The transferred membrane was blocked with TBST (0.1% Tween 20) containing 5% BSA for 1 hour at room temperature. The membrane was incubated with primary antibodies overnight including anti-p-S6 (Ser235/Ser236, D57.2.2E; Cell Signaling), anti-p-p70 S6 kinase (Thr389, 108D2; Cell Signaling), anti-p-4E-BP1 (Thr37/46, 236B4; Cell Signaling), anti-LC3α/β (G-4; Santa Cruz); anti-p-ULK1 (Ser757, D706U; Cell Signaling), anti-AID (EK2 5G9; Cell Signaling), anti-β-actin (13E5; Sigma-Aldrich), and anti-SCD2 (H-12; Santa Cruz). Then, the membrane was washed and incubated with the corresponding secondary antibody for subsequent enhanced chemiluminescence (ECL; Thermo Fisher) exposure. The band intensity of all the immunoblot was analyzed by ImageJ software.

Chop, Atf4, Sqstm1 = assay: RT-PCR of ER stress-related genes in activated B cells
Procedure: For mRNA analysis, total mRNA was isolated from mouse and human B cells by RNeasy Micro kit (Qiagen), reverse transcribed from mRNA to cDNA for subsequent real-time PCR analysis. Scd1, Scd2, Fasn, Acaca, Chop, Atf4, Sqstm1 in mouse B cells and Scd, Fasn, Acaca expression in human B cells were measured by real-time PCR with a Bio-Rad Realtime PCR system. β-actin expression was used as control.

SMILES | OA mediated increase of basal respiration with titrated doses (activated murine B cells [1]; exogenous OA 1, 10, 20 and 50) | glycolytic capacity of activated murine B cells (activated murine B cells [1]; exogenous fatty acid, 48 h, Glycolysis Stress test) | B cell respiration (OCR) (activated murine B cells [1]; exogenous fatty acid, 48 h, CpG/IL-4/IL-5 (PO: CpG and anti-IgM/anti-CD40) stimulation) | mitochondrial membrane potential (TMRM) under SCD inhibition with exogenous OA (activated murine B cells [2]; SSI-4 plus OA) | mitochondrial membrane potential (TMRM) (activated murine B cells [2]) | levels of p-S6K and p-S6 with exogenous OA ([3]; SSI-4 treated or SCD1/2 deficient B cells plus OA) | increased LC3-II/LC3-I ratio with exogenous OA ([3]; SSI-4 treated or SCD deficient B cells plus OA) | ER stress-related gene upregulation with exogenous OA (Chop, Atf4, Sqstm1; SSI-4 plus OA) | B cell glycolysis (ECAR) under SCD inhibition (activated murine B cells [1]; SSI-4, 48 hours) | B cell respiration (OCR) under SCD inhibition (activated murine B cells [1]; SSI-4, 48 hours) | levels of p-S6K and p-S6 ([3]; SSI-4 treated B cells) | LC3-II/LC3-I ratio ([3]; SSI-4 treated B cells vs control cells) | expression of activation-induced cytidine deaminase (AID) ([3]; SSI-4 treatment) | ER stress-related genes Chop, Atf4, Sqstm1 (Chop, Atf4, Sqstm1; SSI-4 treatment)
CCCCCCCC/C=C\CCCCCCCC(=O)O [OA, oleic acid] | dose dependent | increased the glycolytic capacity | enhanced B cell respiration | corrected | able to increase mitochondrial membrane potential | restored | completely rescued | reduced these genes upregulation | – | – | – | – | – | –
CNC(=O)c1ccnc(NC(=O)N2CCC(Oc3ccccc3Cl)CC2)c1 [SSI-4, 2-{[4-(2-Chlorophenoxy)piperidine-1-carbonyl]amino}-N-methylpyridine-4-carboxamide] | – | – | – | – | reduced mitochondrial membrane potential | – | – | – | strongly suppressed | strongly suppressed | decreased | substantial increase | Reduced expression | increased
